In ChEMBL document CHEMBL3286274, “Investigation of a novel series of 2-hydroxyisoquinoline-1,3(2H,4H)-diones as human immunodeficiency virus type 1 integrase inhibitors” (J Med Chem, 2014):
pEC50, pIC50: −log10 of the molar value. Calls of active or inactive are those of the source. No cut-off for these calls is given here.

Key:
in vitro = settings: human, MT4 cells infected with HIV-1 3B
Description: Therapeutic index, ratio of CC50 for human MT4 cells infected with HIV-1 3B to EC50 for HIV-1 3B infected in human MT4 cells

[1] = test system: Human immunodeficiency virus 1; assay: Antiviral activity against HIV-1 3B infected in human MT4 cells assessed as protection against virus-induced cytopathic effect by MTT assay; type: functional, organism-based; settings: Human immunodeficiency virus 1, 3B
[2] = target: Human immunodeficiency virus type 1 reverse transcriptase (Human immunodeficiency virus 1) (UniProt Q72547); assay: Inhibition of recombinant HIV-1 reverse transcriptase-associated RNase H activity using [3H]-labeled RNA as substrate at 10 uM after 10 mins relative to control
[3] = target: Human immunodeficiency virus type 1 integrase (Human immunodeficiency virus 1, UniProt Q7ZJM1); assay: Inhibition of HIV-1 overall integrase activity using 5'-digoxigenin-labeled GACCCTTTTAGTCAGTGTGGAAAATCTCTAGCAGT-3' as substrate after 1 hr by ELISA
[4] = Cytotoxicity against human MT4 cells infected with HIV-1 3B assessed as reduction in cell viability by MTT assay; type: cell-based
[5] = test system: Human immunodeficiency virus 1; assay: Antiviral activity against HIV-1 3B infected in human MT4 cells assessed as inhibition of p24 antigen production by measuring time delay in loss of compound activity at 50 to 100 times EC50 by ELISA; type: functional
[6] = test system: Human immunodeficiency virus 1; assay: Resistance ratio of EC50 for raltegravir-resistant HIV1 harboring integrase E92Q mutant to EC50 for wild type HIV1; type: functional
[7] = test system: Human immunodeficiency virus 1; assay: Antiviral activity against HIV-1 3B infected in human MT4 cells assessed as inhibition of p24 antigen production at 50 to 100 times EC50 treated for 1 to 25 hrs measured at 30 hrs by ELISA; type: functional, organism-based
[8] = test system: Human immunodeficiency virus 1; assay: Resistance ratio of EC50 for raltegravir-resistant HIV1 harboring integrase G140S/Q148H double mutant to EC50 for wild type HIV1; type: functional
[9] = test system: Human immunodeficiency virus 1; assay: Resistance ratio of EC50 for raltegravir-resistant HIV1 harboring integrase N155H mutant to EC50 for wild type HIV1; type: functional
[10] = n-octanol-PBS partition coefficient, log D of the compound at pH 7.4; type: physicochemical
[11] = test system: Human immunodeficiency virus 1; assay: Resistance ratio of EC50 for raltegravir-resistant HIV1 harboring integrase Q148H mutant to EC50 for wild type HIV1; type: functional
[12] = target: Human immunodeficiency virus type 1 reverse transcriptase (Human immunodeficiency virus 1, UniProt Q72547); assay: Inhibition of recombinant HIV-1 reverse transcriptase-associated RNase H activity using [3H]-labeled RNA as substrate after 10 mins

COc1ccc2c(c1)C(=O)N(O)C(=O)C2C(=O)NCc1ccc(F)cc1 (stereo not drawn)
selectivity ratio (in vitro): 3 | pEC50 [1]: 5.19 | inhibition [2]: 15.5% | pIC50 [3]: 6.59 | CC50 [4]: 21000 nM

O=C(NCc1ccc(F)cc1)C1C(=O)N(O)C(=O)c2ccc(F)cc21 (stereo not drawn)
selectivity ratio (in vitro): 39 | pEC50 [1]: 5.50 | inhibition [2]: 24.5% | pIC50 [3]: 6.62 | CC50 [4]: 123000 nM

O=C(NCc1ccc(F)cc1)C1C(=O)N(O)C(=O)c2cc(Cl)ccc21 (stereo not drawn)
pEC50 [1]: 5.38 | inhibition [2]: 26.3% | pIC50 [3]: 6.85 | CC50 [4]: 106000 nM

O=C(NCc1ccccc1)c1c(O)n(O)c(=O)c2cc([N+](=O)[O-])ccc12
selectivity ratio (in vitro): 564 | pEC50 [1]: 6.68 | inhibition [2]: 69.1% | pIC50 [3]: 8.00 | CC50 [4]: 118000 nM

Cc1nnc(C(=O)NC(C)(C)c2nc(C(=O)NCc3ccc(F)cc3)c(O)c(=O)n2C)o1
CC50 [4]: > 8000 nM

COc1ccc(CNC(=O)c2c(O)n(O)c(=O)c3cc([N+](=O)[O-])ccc23)cc1
selectivity ratio (in vitro): > 84 | pEC50 [1]: 5.53 | inhibition [2]: 67.2% | pIC50 [3]: 8.00 | CC50 [4]: > 250000 nM

O=C(NCc1ccc(F)cc1)c1c(O)n(O)c(=O)c2ccc([N+](=O)[O-])cc12
selectivity ratio (in vitro): > 463 | pEC50 [1]: 6.57 | inhibition [2]: 48.2% | pIC50 [3]: 7.52 | CC50 [4]: > 125000 nM

O=C(NCc1ccc(F)cc1)C1C(=O)N(O)C(=O)c2cc(F)ccc21 (stereo not drawn)
selectivity ratio (in vitro): 162 | pEC50 [1]: 6.14 | inhibition [2]: 21.9% | pIC50 [3]: 6.62 | CC50 [4]: 116000 nM

O=C(Nc1ccc(F)cc1)c1c(O)n(O)c(=O)c2cc([N+](=O)[O-])ccc12
selectivity ratio (in vitro): 981 | pEC50 [1]: 6.72 | pIC50 [3]: 7.52 | CC50 [4]: 186000 nM

O=C(Nc1ccc2c(c1)C(=O)N(O)C(=O)C2C(=O)NCc1ccc(F)cc1)c1ccccn1 (stereo not drawn)
pEC50 [1]: < 5.92 | pIC50 [3]: 6.80 | CC50 [4]: 1000 nM

O=C(Nc1ccc2c(c1)C(=O)N(O)C(=O)C2C(=O)NCc1ccc(F)cc1)c1ccccc1 (stereo not drawn)
pEC50 [1]: < 4.68 | inhibition [2]: 41.2% | pIC50 [3]: 7.10 | CC50 [4]: 21000 nM

CC(=O)Nc1ccc2c(c1)C(=O)N(O)C(=O)C2C(=O)NCc1ccc(F)cc1 (stereo not drawn)
selectivity ratio (in vitro): 5 | pEC50 [1]: 4.53 | inhibition [2]: 25.2% | pIC50 [3]: 7.00 | CC50 [4]: 149000 nM

Cc1cn([C@H]2C[C@H](N=[N+]=[N-])[C@@H](CO)O2)c(=O)[nH]c1=O [ZIDOVUDINE]
Time [5]: 4 h

O=C(NCc1ccc(F)cc1)c1c(O)n(O)c(=O)c2ccccc12
Ratio EC50 [6]: 1 | inhibition [7]: Active | Ratio EC50 [8]: 1 | Ratio EC50 [9]: 1 | logD [10]: 0.56 | Ratio EC50 [11]: 1

CCCCCCNC(=O)c1c(O)n(O)c(=O)c2cc([N+](=O)[O-])ccc12
selectivity ratio (in vitro): > 59 | pEC50 [1]: 5.38 | inhibition [2]: 49% | pIC50 [3]: 7.22 | CC50 [4]: > 250000 nM

O=C(Nc1ccccc1)c1c(O)n(O)c(=O)c2cc([N+](=O)[O-])ccc12
selectivity ratio (in vitro): 679 | pEC50 [1]: 6.77 | inhibition [2]: 60% | pIC50 [3]: 8.00 | CC50 [4]: 115000 nM

N#Cc1ccc2c(C(=O)NCc3ccc(F)cc3)c(O)n(O)c(=O)c2c1
selectivity ratio (in vitro): > 187 | pEC50 [1]: 6.17 | pIC50 [3]: 7.15 | CC50 [4]: > 125000 nM

CC(C)c1nc(CN(C)C(=O)N[C@H](C(=O)N[C@@H](Cc2ccccc2)C[C@H](O)[C@H](Cc2ccccc2)NC(=O)OCc2cncs2)C(C)C)cs1 [RITONAVIR]
Time [5]: 25 h

O=C(NCc1ccc(F)cc1)C1C(=O)N(O)C(=O)c2cc(Br)ccc21 (stereo not drawn)
selectivity ratio (in vitro): 33 | pEC50 [1]: 5.52 | inhibition [2]: 38.7% | pIC50 [3]: 7.22 | CC50 [4]: 99500 nM

O=C(NCc1ccc(F)cc1)C1C(=O)N(O)C(=O)c2c(F)cccc21 (stereo not drawn)
selectivity ratio (in vitro): 33 | pEC50 [1]: 5.35 | inhibition [2]: 31.6% | pIC50 [3]: 6.06 | CC50 [4]: 149000 nM

O=C(Cc1cccs1)Nc1ccc2c(c1)C(=O)N(O)C(=O)C2C(=O)NCc1ccc(F)cc1 (stereo not drawn)
pEC50 [1]: < 4.39 | inhibition [2]: 28.9% | pIC50 [3]: 7.22 | CC50 [4]: 41000 nM

O=C(NCCc1ccc(F)cc1)c1c(O)n(O)c(=O)c2cc([N+](=O)[O-])ccc12
selectivity ratio (in vitro): > 262 | pEC50 [1]: 6.02 | pIC50 [3]: 7.22 | CC50 [4]: > 250000 nM

O=C(Cc1ccccc1)Nc1ccc2c(c1)C(=O)N(O)C(=O)C2C(=O)NCc1ccc(F)cc1 (stereo not drawn)
pEC50 [1]: < 4.51 | inhibition [2]: 46.4% | pIC50 [3]: 6.64 | CC50 [4]: 31000 nM

O=C(NCc1ccc(F)cc1)c1c(O)n(O)c(=O)c2cc([N+](=O)[O-])ccc12
inhibition [2]: 78.7% | pIC50 [3]: 8.00 | pIC50 [12]: 5.32

O=C(NCc1ccc(F)cc1)C1C(=O)N(O)C(=O)c2cc(C(F)(F)F)ccc21 (stereo not drawn)
selectivity ratio (in vitro): > 94 | pEC50 [1]: 6.22 | inhibition [2]: 25.5% | pIC50 [3]: 7.70 | CC50 [4]: > 56000 nM

Nc1ccc2c(c1)C(=O)N(O)C(=O)C2C(=O)NCc1ccc(F)cc1 (stereo not drawn)
selectivity ratio (in vitro): 10 | pEC50 [1]: 4.63 | inhibition [2]: 29.4% | pIC50 [3]: 6.96 | CC50 [4]: 253000 nM
